Source: PubChem BioAssay AID330 (DTP/NCI, 2004)
Several values for one entry are separate records, joined by “and”; a condition that tells them apart may be missing. Equal values may be shown once. Toxic doses and inconclusive results are not listed. Rule for the calls: active = survival T/C of 150% or more; inactive = T/C below 125% in these data.

Tested on: P388 leukemia ip, CD2F1 mice, survival T/C
Assay: NCI In Vivo Anticancer Drug Screen. Data for tumor model P388 Leukemia (intraperitoneal) in CD2F1 (CDF1) mice
Conditions: endpoint: median survival time, higher = longer survival
Summary of the method: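 Mice carrying the transplanted tumor received test compound or vehicle. Survival was recorded in each group, and the value is the treated-group measurement divided by that of the vehicle-treated control group.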

[1] = dose: 100.0 mg/kg/injection, schedule: Q04DX003 (ip), vehicle: saline with Tween-80
[2] = dose: 200.0 mg/kg/injection, schedule: Q04DX003 (ip), vehicle: saline with Tween-80
[3] = dose: 400.0 mg/kg/injection, schedule: Q04DX003 (ip), vehicle: saline with Tween-80
[4] = dose: 50.0 mg/kg/injection, schedule: Q01DX009 (ip), vehicle: saline
[5] = dose: 100.0 mg/kg/injection, schedule: Q01DX009 (ip), vehicle: saline
[6] = dose: 100.0 mg/kg/injection, schedule: Q04DX003 (ip), vehicle: saline
[7] = dose: 50.0 mg/kg/injection, schedule: Q01DX005 (ip), vehicle: saline with Tween-80
[8] = dose: 100.0 mg/kg/injection, schedule: Q01DX005 (ip), vehicle: saline with Tween-80
[9] = dose: 200.0 mg/kg/injection, schedule: Q01DX005 (ip), vehicle: saline with Tween-80
[10] = dose: 200.0 mg/kg/injection, schedule: Q01DX009 (ip), vehicle: saline
[11] = dose: 50.0 mg/kg/injection, schedule: Q01DX005 (ip), vehicle: Klucel (hydroxypropylcellulose) (HPC)
[12] = dose: 100.0 mg/kg/injection, schedule: Q01DX005 (ip), vehicle: Klucel (hydroxypropylcellulose) (HPC)
[13] = dose: 200.0 mg/kg/injection, schedule: Q01DX005 (ip), vehicle: Klucel (hydroxypropylcellulose) (HPC)
[14] = dose: 25.0 mg/kg/injection, schedule: Q01DX005 (ip), vehicle: Klucel (hydroxypropylcellulose) (HPC)
[15] = dose: 100.0 mg/kg/injection, schedule: Q01DX009 (ip), vehicle: saline with Tween-80
[16] = dose: 200.0 mg/kg/injection, schedule: Q01DX009 (ip), vehicle: saline with Tween-80
[17] = dose: 60.0 mg/kg/injection, schedule: Q01DX005 (ip), vehicle: Klucel (hydroxypropylcellulose) (HPC)
[18] = dose: 120.0 mg/kg/injection, schedule: Q01DX005 (ip), vehicle: Klucel (hydroxypropylcellulose) (HPC)
[19] = dose: 50.0 mg/kg/injection, schedule: Q04DX003 (ip), vehicle: saline with Tween-80
[20] = dose: 50.0 mg/kg/injection, schedule: Q01DX009 (ip), vehicle: saline with Tween-80
[21] = dose: 6.25 mg/kg/injection, schedule: Q01DX005 (ip), vehicle: Klucel (hydroxypropylcellulose) (HPC)
[22] = dose: 12.5 mg/kg/injection, schedule: Q01DX005 (ip), vehicle: Klucel (hydroxypropylcellulose) (HPC)

Measured: T/C

CC(C)c1ccc(C2OCC(C)(C)C(C(C)C)O2)cc1 (stereo not drawn)
inactive: [1] 108 % of control | [2] 105 % of control | [3] 109 % of control

C#CCSc1ncnc2nc[nH]c12
inactive: dose: 25.0 mg/kg/injection, schedule: Q01DX009 (ip), vehicle: saline 95 % of control | dose: 25.0 mg/kg/injection, schedule: Q04DX003 (ip), vehicle: saline 104 % of control | [4] 109 % of control | dose: 50.0 mg/kg/injection, schedule: Q04DX003 (ip), vehicle: saline 100 % of control | [5] 86 % of control | [6] 100 % of control

CC12CCc3ccccc3C1=Nc1ccccc12 (stereo not drawn)
inactive: [7] 103 % of control | [8] 104 % of control | [9] 91 % of control

C[CH2][Ge]([CH3])([CH2]C)[CH2]CCC[CH2][Sn]([CH3])([CH3])[CH3]
inactive: [4] 98 % of control | [5] 99 % of control | [10] 97 % of control

Cc1cc(NC(=O)Nc2ccc(C3=NCCN3)cc2)ccc1NC(=O)Nc1ccc(C2=NCCN2)cc1
inactive: [6] 100 % of control | dose: 200.0 mg/kg/injection, schedule: Q04DX003 (ip), vehicle: saline 104 % of control | dose: 400.0 mg/kg/injection, schedule: Q04DX003 (ip), vehicle: saline 109 % of control

COc1nc(SC)c(C#N)c(=O)[nH]1
inactive: [4] 107 % of control | [5] 98 % of control | [10] 107 % of control

O=C(NN(Cn1c(=S)sc2ccccc21)Cn1c(=S)sc2ccccc21)c1ccccc1O
inactive: [11] 89 % of control | [12] 91 % of control | [13] 98 % of control

CN(C)C=Nc1ccccc1
inactive: [4] 103 % of control | [5] 103 % of control | [10] 108 % of control

CCCCCCCCCCCC(=O)Nc1ncnc2nc[nH]c12
inactive: dose: 50.0 mg/kg/injection, schedule: Q01DX009 (ip), vehicle: Klucel (hydroxypropylcellulose) (HPC) 93 % of control | dose: 100.0 mg/kg/injection, schedule: Q01DX009 (ip), vehicle: Klucel (hydroxypropylcellulose) (HPC) 95 % of control | dose: 200.0 mg/kg/injection, schedule: Q01DX009 (ip), vehicle: Klucel (hydroxypropylcellulose) (HPC) 98 % of control | dose: 400.0 mg/kg/injection, schedule: Q01DX009 (ip), vehicle: Klucel (hydroxypropylcellulose) (HPC) 104 % of control

CCc1nc(N)nc(N)c1-c1ccc(N2CCNCC2)cc1
inactive: [11] 96 % of control | [12] 95 % of control | [13] 101 % of control

O=c1c2cc3c(cc2c2cc([N+](=O)[O-])cc4c2n1CC4)OCO3
inactive: dose: 25.0 mg/kg/injection, schedule: Q01DX009 (ip), vehicle: other 98 % of control | dose: 50.0 mg/kg/injection, schedule: Q01DX009 (ip), vehicle: other 92 % of control | dose: 100.0 mg/kg/injection, schedule: Q01DX009 (ip), vehicle: other 90 % of control | dose: 200.0 mg/kg/injection, schedule: Q01DX009 (ip), vehicle: other 100 % of control | dose: 400.0 mg/kg/injection, schedule: Q01DX009 (ip), vehicle: other 104 % of control

COC(=O)C1(C(C)C(=O)c2ccccc2)NC(=S)NC(=O)C1C#N (stereo not drawn)
inactive: dose: 60.0 mg/kg/injection, schedule: Q01DX005 (ip), vehicle: saline 88 % of control | dose: 120.0 mg/kg/injection, schedule: Q01DX005 (ip), vehicle: saline 98 % of control | dose: 240.0 mg/kg/injection, schedule: Q01DX005 (ip), vehicle: saline 100 % of control

COC(=O)c1ccc(C)c(N)c1
inactive: [7] 102 % of control | [8] 104 % of control | [9] 102 % of control

O=[N+]([O-])c1cc2[nH]cnc2c([N+](=O)[O-])c1Nc1ccc(O)cc1
inactive: [1] 87 % of control | [2] 95 % of control | [3] 101 % of control

CCOC(=O)/N=C1/CCCC(=O)C1O (stereo not drawn)
inactive: [14] 102 % of control | [11] 103 % of control | [12] 93 % of control | [13] 101 % of control

Nc1cc(-c2ccc(Cl)cc2)nn1-c1nnc(-c2ccccc2)c(-c2ccccc2)n1
inactive: [7] 93 % of control | [8] 100 % of control | [9] 103 % of control

CCC(c1ccc(O)cc1)C(CC)c1ccc(OC)cc1 (stereo not drawn)
inactive: [1] 104 % of control | [2] 86 % of control

CCOC(=O)C1(CN(C)c2ccccc2)C(C(C)=O)=CNc2c(C#N)cnn21 (stereo not drawn)
inactive: [7] 99 % of control | [8] 98 % of control | [9] 106 % of control

N=Cc1c(O)n(C2CCCCC2)c(=O)n(C2CCCCC2)c1=O
inactive: [15] 100 % of control | [16] 95 % of control | dose: 400.0 mg/kg/injection, schedule: Q01DX009 (ip), vehicle: saline with Tween-80 100 % of control

O=C1OC(OC/C(Br)=C(/Br)COC2OC(=O)C(Cl)=C2Cl)C(Cl)=C1Cl (stereo not drawn)
inactive: dose: 60.0 mg/kg/injection, schedule: Q01DX005 (ip), vehicle: saline with Tween-80 106 % of control | dose: 120.0 mg/kg/injection, schedule: Q01DX005 (ip), vehicle: saline with Tween-80 108 % of control

CC(=O)OCCCn1nc(COC(N)=O)c2c1CC(C)CC2=O (stereo not drawn)
inactive: [17] 101 % of control | [18] 99 % of control | dose: 240.0 mg/kg/injection, schedule: Q01DX005 (ip), vehicle: Klucel (hydroxypropylcellulose) (HPC) 100 % of control

Cc1nc2c([N+](=O)[O-])c(Nc3ccccc3)c([N+](=O)[O-])cc2[nH]1
inactive: dose: 25.0 mg/kg/injection, schedule: Q04DX003 (ip), vehicle: saline with Tween-80 92 % of control | [19] 101 % of control | [1] 104 % of control and 90 % of control

CCCCCCCCOCC(=O)OC
inactive: [20] 106 % of control | [15] 107 % of control | [16] 101 % of control

Cc1c(C#N)c(N)nc2c(C(N)=O)nsc12
inactive: [21] 98 % of control | [22] 102 % of control | [14] 95 % of control | [11] 91 % of control

COc1cccc(/C=N/NC(=O)C2CCN(C(=S)NC3CC4C=CC3C4)CC2)c1O (stereo not drawn)
inactive: dose: 12.5 mg/kg/injection, schedule: Q01DX009 (ip), vehicle: saline with Tween-80 101 % of control | [20] 99 % of control and 97 % of control | [15] 103 % of control | [16] 103 % of control

COc1c(OCC(O)CN2CCOCC2)c2c(C)coc2c2ccoc12 (stereo not drawn)
inactive: [17] 100 % of control | [18] 105 % of control

O=C(CCl)c1ccc([N+](=O)[O-])cc1
inactive: dose: 1.56 mg/kg/injection, schedule: Q01DX005 (ip), vehicle: Klucel (hydroxypropylcellulose) (HPC) 100 % of control | dose: 3.12 mg/kg/injection, schedule: Q01DX005 (ip), vehicle: Klucel (hydroxypropylcellulose) (HPC) 100 % of control | [21] 108 % of control | [22] 89 % of control and 98 % of control | [20] 116 % of control

NC(N)=N/N=C/c1nccc2ccccc12
inactive: dose: 25.0 mg/kg/injection, schedule: Q01DX005 (ip), vehicle: saline with Tween-80 99 % of control and 103 % of control | [7] 98 % of control and 99 % of control and 102 % of control | [8] 105 % of control and 120 % of control

COc1cc(/C=N\NC(=O)OC(C)(C)C)cc(OC)c1OC
inactive: [19] 100 % of control | [1] 91 % of control | [2] 91 % of control

Cc1cc(N)c(C)c2c1[nH]c1ccc(Br)cc12
inactive: [7] 94 % of control | [8] 93 % of control | [9] 89 % of control
